One experiment addresses T1, ETB receptor (Sus scrofa, UniProt P35463).
T1 construct: The plasma membrane of porcine lung (2 mg of protein); from tissue; host or cells: porcine lung plasma membrane
T1 sequence (P35463 27-443): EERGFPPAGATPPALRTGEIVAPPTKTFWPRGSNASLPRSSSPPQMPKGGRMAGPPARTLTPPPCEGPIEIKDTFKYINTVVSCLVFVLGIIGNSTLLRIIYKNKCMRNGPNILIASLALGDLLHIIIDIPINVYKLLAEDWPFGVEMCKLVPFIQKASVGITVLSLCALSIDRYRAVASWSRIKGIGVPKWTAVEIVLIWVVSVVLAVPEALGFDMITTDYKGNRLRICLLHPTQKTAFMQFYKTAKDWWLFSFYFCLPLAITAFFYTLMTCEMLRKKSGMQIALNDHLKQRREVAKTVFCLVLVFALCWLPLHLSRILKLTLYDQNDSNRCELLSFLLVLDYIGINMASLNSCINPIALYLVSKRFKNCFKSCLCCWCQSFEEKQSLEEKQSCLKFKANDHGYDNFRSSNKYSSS
Briefly: Endothelin (ET) receptor binding assay, ETB receptor. To be noted: [^125 I]ET-3 alone; porcine lung plasma membrane; 37° C., 1 hour, pH 7.4. Here is the method: Endothelin (ET) receptor binding assay
(§1) After the incubation, unbound [^125 I]ETs were separated by centrifugation at 20,000×g for 20 min at 4° C. followed by aspiration of the supernatant. The radioactivity in the membrane pellet is measured in Wallac-1470 Wizard autogamma counter (Pharmacia). Nonspecific binding is defined as membrane-associated radioactivity in the presence of saturating concentrations of ETs (100 nM). Nonspecific binding is subtracted from the total binding and the difference is defined as specific binding.
With `CCCCS(=O)(=O)NC(=O)[C@@H](NC(=O)C(Cc1ccc(-c2ccno2)cc1)N(C)C(=O)c1cc(C)cc(C)c1)[C@@H](C)CC` (some centres unmarked) [10(a), N-butanesulfonyl-[N-(3,5-dimethylbenzoyl)-N-methyl-3-[4-(5-isoxazolyl)-phenyl]-(D,L)-alanyl]-(L)-isoleucineamide], the Ki (in general, the dissociation constant of the complex between target and ligand, obtained from inhibition or displacement) is 3.5 nM.

Consider `CCCCS(=O)(=O)NC(=O)[C@@H](NC(=O)C(Cc1ccc(-c2ccno2)cc1)N(C)C(=O)c1cc(C)cc(C)c1)C(C)C` (some centres unmarked) [Example 11, N-butanesulfonyl-[N-(3,5-dimethylbenzoyl)-N-methyl-3-[4-(5-isoxazolyl)-phenyl]-(D,L)-alanyl]-(L)-valineamide], for which the Ki is 1.2 nM. Compared with the last compound, the Ki is about 2.9-fold lower.

`Cc1cc(C)cc(C(=O)N(C)[C@H](Cc2ccc(-c3ccsc3)cc2)C(=O)NC(Cc2c[nH]c3ccccc23)C(=O)NS(=O)(=O)c2cccs2)c1` (some centres unmarked) [Example 2, N-(2-thienyl)sulfonyl-[N-(3,5-dimethylbenzoyl)-N-methyl-(D)-3-[4-(3-thienyl)phenyl]-alanyl]-(D,L)-tryptophanamide] registered a Ki of 0.3 nM. This Ki lies about 4-fold lower than the previous one.

On to `CCCCS(=O)(=O)NC(=O)[C@H](Cc1c[nH]c2ccccc12)NC(=O)C(Cc1ccc(-c2ccno2)cc1)N(C)C(=O)c1cc(C)cc(C)c1` (some centres unmarked) [Example 8, N-butanesulfonyl-[N-(3,5-dimethylbenzoyl)-N-methyl-3-[4-(5-isoxazolyl)-phenyl]-(D,L)-alanyl]-(L)-tryotophanamide], for which the Ki was 0.24 nM.

Take `C=CCS(=O)(=O)NC(=O)[C@H](Cc1c[nH]c2ccccc12)NC(=O)C(Cc1ccc(-c2ccno2)cc1)N(C)C(=O)c1cc(C)cc(C)c1` (some centres unmarked) [Example 9, N-(2-propene)sulfonyl-[N-(3,5-dimethylbenzoyl)-N-methyl-3-[4-(5-isoxazolyl)-phenyl]-(D,L)-alanyl]-(L)-tryptophanamide]: the Ki came out at 0.23 nM.

In the case of `Cc1cc(C)cc(C(=O)N(C)[C@H](Cc2ccc(-c3ccccc3)cc2)C(=O)NC(Cc2c[nH]c3ccccc23)C(=O)NS(=O)(=O)c2ccccc2)c1` (some centres unmarked) [Example 1, N-benzenesulfonyl-[N-(3,5-dimethylbenzoyl)-N-methyl-3-(biphenyl-4-yl)-(D)-alanyl]-(D,L)-tryptophanamide], the affinity, expressed as Ki, was 0.9 nM.

As for `Cc1cc(C)cc(C(=O)N(C)[C@H](Cc2ccc(O)cc2)C(=O)NC(Cc2c[nH]c3ccccc23)C(=O)NS(=O)(=O)c2ccccc2)c1` (some centres unmarked) [7(9), N-benzenesulfonyl-[N-(3,5-dimethylbenzoyl)-N-methyl-3-(4-hydroxyphenyl)-(D)-alanyl]-(D,L)-tryptophanamide], affinity was put at a Ki of 2.3 nM. Against the preceding compound, the Ki is about 2.6-fold higher.

Compound `CCCCS(=O)(=O)NC(=O)[C@H](Cc1c[nH]c2ccccc12)NC(=O)C(Cc1ccc(-n2cncn2)cc1)N(C)C(=O)c1cc(C)cc(C)c1` (some centres unmarked) [Example 12, N-butanesulfonyl-[N-(3,5-dimethylbenzoyl)-N-methyl-3-[4-(1,2,4-triazol-1-yl)-phenyl]-(D,L)-alanyl]-(L)-tryptophanamide] displayed a Ki of 0.16 nM.

As to `Cc1cc(C)cc(C(=O)N(C)[C@H](Cc2ccc(-c3ccno3)cc2)C(=O)NC(Cc2c[nH]c3ccccc23)C(=O)NS(=O)(=O)c2ccccc2)c1` (some centres unmarked) [Example 6], the affinity, expressed as Ki, was 0.34 nM.

With `CCCCS(=O)(=O)NC(=O)[C@H](Cc1c[nH]c2ccccc12)NC(=O)C(Cc1ccc(-n2ccnn2)cc1)N(C)C(=O)c1cc(C)cc(C)c1` (some centres unmarked) [Example 13, N-butanesulfonyl-[N-(3,5-dimethylbenzoyl)-N-methyl-3-[4-(1,2,3-triazol-1-yl)-phenyl]-(D,L)-alanyl]-(L)-tryptophanamide], the Ki is 0.27 nM.

In another experiment the target is T1, ETB receptor. Kind of experiment: Scatchard analysis of radioligand binding, ETB receptor. The settings on record: porcine lung plasma membrane, [^125 I]ET-3 alone. Here is the method:
as §1, with “binding. Total binding is always less than 15% of the total radioactivity added. […] From the inhibition curves for the binding of [^125 I]ETs, the apparant binding affinity constant (Ki) of one of the test compounds is calculated as a parameter of the affinity for the ETA and ETB receptors, as shown in the following table.” for “binding.”
Regarding “[^125 I]ET-3: radiolabelled endothelin-3 purchased from Amersham International; ETs are vasoactive peptides with 21 amino acid residues”, the Bmax was 362 fmol/mg protein.

The record behind these values is patent publication US5703106A, “Antagonists of endothelin receptors” (priority 1994, dated 1997).
